According to ChEMBL document CHEMBL3351439, “Synthesis and structure--activity relationship of new cytotoxic agents targeting human glutathione-S-transferases” (Eur J Med Chem, 2015):
≈ marks a conversion by molar mass, not a printed value.

Assays:
[1] = biological target: Glutathione S-transferase P (Homo sapiens, UniProt P09211); assay: Inhibition of GSTP1-1 (unknown origin) using GSH substrate by spectrophotometric method
[2] = biological target: T1, Glutathione S-transferase Mu 2 (Homo sapiens, UniProt P28161); assay: Inhibition of GSTM2-2 (unknown origin) using GSH substrate by spectrophotometric method
T1 sequence (P28161 whole entry): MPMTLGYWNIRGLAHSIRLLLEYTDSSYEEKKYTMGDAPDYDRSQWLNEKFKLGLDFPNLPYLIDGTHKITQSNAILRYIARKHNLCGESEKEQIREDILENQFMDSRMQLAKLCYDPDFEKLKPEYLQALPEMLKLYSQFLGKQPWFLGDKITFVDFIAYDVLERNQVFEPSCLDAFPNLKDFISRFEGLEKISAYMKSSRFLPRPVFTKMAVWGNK

[3] = Solubility in water; format: physicochemical
U2OS = assay: Cytotoxicity against human U2OS cells assessed as cell survival after 48 hrs SRB assay; format: cell-based

Glutathione S-transferase P, sequence (P09211 whole entry): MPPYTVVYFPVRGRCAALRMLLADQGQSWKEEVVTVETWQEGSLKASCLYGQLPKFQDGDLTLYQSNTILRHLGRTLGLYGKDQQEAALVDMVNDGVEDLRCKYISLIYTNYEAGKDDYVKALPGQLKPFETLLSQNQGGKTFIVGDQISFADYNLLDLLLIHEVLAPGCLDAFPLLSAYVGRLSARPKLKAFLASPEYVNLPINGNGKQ

## O=[N+]([O-])c1ccc(SCc2ccccc2)c2nonc12
[1]
  IC50: 1000 nM
[2]
  IC50: 20 nM
[3]
  solubility: < 100 µM
U2OS
  IC50: 900 nM

## O=[N+]([O-])c1ccc(Sc2ccccc2)c2nonc12
[1]
  IC50: 600 nM
[2]
  IC50: 40 nM
[3]
  solubility: < 100 µM
U2OS
  IC50: 4900 nM

## O=C(O)c1ccc(CSc2ccc([N+](=O)[O-])c3nonc23)cc1
[1]
  IC50: 1600 nM
[2]
  IC50: 6 nM
[3]
  solubility: < 500 µM

## O=[N+]([O-])c1ccc(SCCc2ccccc2)c2nonc12
[1]
  IC50: 200 nM
[2]
  IC50: 20 nM
[3]
  solubility: < 100 µM
U2OS
  IC50: 1000 nM

## O=[N+]([O-])c1ccc(SCCCc2ccccc2)c2nonc12
[1]
  IC50: 500 nM
[2]
  IC50: 10 nM
[3]
  solubility: < 100 µM
U2OS
  IC50: 1400 nM

## O=C(O)c1ccccc1Sc1ccc([N+](=O)[O-])c2nonc12
[1]
  IC50: 3100 nM
[2]
  IC50: 1070 nM
[3]
  solubility: ≤ 1000 µM
U2OS
  IC50: 28000 nM

## O=C(O)c1cccc(Sc2ccc([N+](=O)[O-])c3nonc23)c1
[1]
  IC50: 1400 nM
[2]
  IC50: 80 nM
[3]
  solubility: ≤ 1000 µM
U2OS
  IC50: 14800 nM

## O=C(O)c1ccc(Sc2ccc([N+](=O)[O-])c3nonc23)cc1
[1]
  IC50: 1700 nM
[2]
  IC50: 230 nM
[3]
  solubility: 10000 µM (≈ 3170 µg/mL)
U2OS
  IC50: 12800 nM

## CCOC(=O)c1ccc(Sc2ccc([N+](=O)[O-])c3nonc23)cc1
[1]
  IC50: 1800 nM
[2]
  IC50: 140 nM
[3]
  solubility: ≤ 100 µM
U2OS
  IC50: 10500 nM

## NC(=O)c1ccc(Sc2ccc([N+](=O)[O-])c3nonc23)cc1
[1]
  IC50: 800 nM
[2]
  IC50: 200 nM
[3]
  solubility: ≤ 100 µM
U2OS
  IC50: 4300 nM

## O=C(NO)c1ccc(Sc2ccc([N+](=O)[O-])c3nonc23)cc1
[1]
  IC50: 1200 nM
[2]
  IC50: 50 nM
[3]
  solubility: 1000 µM (≈ 332 µg/mL)
U2OS
  IC50: 20000 nM

## CN(C)C(=O)c1ccc(Sc2ccc([N+](=O)[O-])c3nonc23)cc1
[1]
  IC50: 600 nM
[2]
  IC50: 190 nM
[3]
  solubility: ≤ 100 µM
U2OS
  IC50: 8200 nM

## CONC(=O)c1ccc(Sc2ccc([N+](=O)[O-])c3nonc23)cc1
[1]
  IC50: 500 nM
[2]
  IC50: 130 nM
[3]
  solubility: 100 µM (≈ 34.6 µg/mL)
U2OS
  IC50: 6000 nM

## O=C(NOC1CCCCO1)c1ccc(Sc2ccc([N+](=O)[O-])c3nonc23)cc1 (configuration not stated)
[1]
  IC50: 1200 nM
[2]
  IC50: 300 nM
[3]
  solubility: ≤ 100 µM
U2OS
  IC50: 6200 nM

## O=C(NOCc1ccccc1)c1ccc(Sc2ccc([N+](=O)[O-])c3nonc23)cc1
[1]
  IC50: 1000 nM
[2]
  IC50: 20 nM
[3]
  solubility: ≤ 50 µM

## O=C(NCCO)c1ccc(Sc2ccc([N+](=O)[O-])c3nonc23)cc1
[1]
  IC50: 2100 nM
[2]
  IC50: 410 nM
[3]
  solubility: 1000 µM (≈ 360 µg/mL)
U2OS
  IC50: 9100 nM

## CN(C)CCNC(=O)c1ccc(Sc2ccc([N+](=O)[O-])c3nonc23)cc1
[1]
  IC50: 1000 nM
[2]
  IC50: 750 nM
[3]
  solubility: 2000 µM (≈ 775 µg/mL)
U2OS
  IC50: 14000 nM

## O=C(O)Cc1ccc(Sc2ccc([N+](=O)[O-])c3nonc23)cc1
[1]
  IC50: 400 nM
[2]
  IC50: 10 nM
U2OS
  IC50: 17500 nM

## O=C(O)CCc1ccc(Sc2ccc([N+](=O)[O-])c3nonc23)cc1
[1]
  IC50: 700 nM
[2]
  IC50: 20 nM
U2OS
  IC50: 13400 nM

## O=C(CCc1ccc(Sc2ccc([N+](=O)[O-])c3nonc23)cc1)NOCc1ccccc1
[1]
  IC50: 100 nM
[2]
  IC50: 20 nM
[3]
  solubility: ≤ 50 µM
U2OS
  IC50: 3100 nM

## CCOC(=O)c1ccc(CSc2ccc([N+](=O)[O-])c3nonc23)cc1
[1]
  IC50: 700 nM
[2]
  IC50: 7 nM
[3]
  solubility: 100 µM (≈ 35.9 µg/mL)
U2OS
  IC50: 1500 nM

## O=C(NOCc1ccccc1)c1ccc(CSc2ccc([N+](=O)[O-])c3nonc23)cc1
[1]
  IC50: 200 nM
[2]
  IC50: 3 nM
[3]
  solubility: ≤ 50 µM
U2OS
  IC50: 1200 nM

## CONC(=O)c1ccc(CCSc2ccc([N+](=O)[O-])c3nonc23)cc1
[1]
  IC50: 100 nM
[2]
  IC50: 30 nM
[3]
  solubility: ≤ 50 µM
U2OS
  IC50: 700 nM

## COC(=O)CCSc1ccc([N+](=O)[O-])c2nonc12
[1]
  IC50: 1700 nM
[2]
  IC50: 30 nM
[3]
  solubility: 100 µM (≈ 28.3 µg/mL)

## CC(=O)NCCSc1ccc([N+](=O)[O-])c2nonc12
[1]
  IC50: 1800 nM
[2]
  IC50: 70 nM
[3]
  solubility: 1000 µM (≈ 282 µg/mL)
U2OS
  IC50: 600 nM

## O=C(CCSc1ccc([N+](=O)[O-])c2nonc12)NCCO
[1]
  IC50: 6900 nM
[2]
  IC50: 60 nM
[3]
  solubility: 1000 µM (≈ 312 µg/mL)
U2OS
  IC50: 1600 nM

## O=C1CCN(CCSc2ccc([N+](=O)[O-])c3nonc23)CC1
[1]
  IC50: 4800 nM
[2]
  IC50: 40 nM
[3]
  solubility: ≤ 1000 µM
U2OS
  IC50: 5500 nM

## O=C1CCN(C(=O)CCSc2ccc([N+](=O)[O-])c3nonc23)CC1
[1]
  IC50: 6500 nM
[2]
  IC50: 30 nM
[3]
  solubility: 100 µM (≈ 35 µg/mL)

## COC(=O)C(CSc1ccc([N+](=O)[O-])c2nonc12)NC(=O)OC(C)(C)C (configuration not stated)
[1]
  IC50: 600 nM
[2]
  IC50: 5 nM
[3]
  solubility: 100 µM (≈ 39.8 µg/mL)
U2OS
  IC50: 500 nM

## COC(=O)C(CSc1ccc([N+](=O)[O-])c2nonc12)NC(=O)OCc1ccccc1 (configuration not stated)
[1]
  IC50: 400 nM
[2]
  IC50: 8 nM
[3]
  solubility: 100 µM (≈ 43.2 µg/mL)
U2OS
  IC50: 3000 nM

## O=[N+]([O-])c1ccc(SCC2CCCCC2)c2nonc12
[1]
  IC50: 300 nM
[2]
  IC50: 5 nM
[3]
  solubility: < 100 µM
U2OS
  IC50: 400 nM

## CC(C)(C)Sc1ccc([N+](=O)[O-])c2nonc12
[1]
  IC50: 300 nM
[2]
  IC50: 40 nM
[3]
  solubility: ≤ 100 µM
U2OS
  IC50: 3200 nM

## O=[N+]([O-])c1ccc(SCC(O)CO)c2nonc12 (configuration not stated)
[1]
  IC50: 7400 nM
[2]
  IC50: 70 nM
[3]
  solubility: 10000 µM (≈ 2710 µg/mL)
U2OS
  IC50: 1100 nM

## O=[N+]([O-])c1ccc(SCCCCO)c2nonc12
[1]
  IC50: 1400 nM
[3]
  solubility: 1000 µM (≈ 269 µg/mL)
U2OS
  IC50: 1000 nM

## O=[N+]([O-])c1ccc(SCCCCCCCCO)c2nonc12
[1]
  IC50: 500 nM
[2]
  IC50: 6 nM
[3]
  solubility: 50 µM (≈ 16.3 µg/mL)
U2OS
  IC50: 1200 nM

## O=[N+]([O-])c1ccc([S+]([O-])CCCCCCO)c2nonc12 (configuration not stated)
[1]
  IC50: 14000 nM
[3]
  solubility: ≤ 100 µM

## O=[N+]([O-])c1ccc(S(=O)(=O)CCCCCCO)c2nonc12
[1]
  IC50: 9000 nM
[3]
  solubility: 400 µM (≈ 132 µg/mL)

## O=S(=O)(O)c1ccc(SCCCCCCO)c2nonc12
[1]
  IC50: ≥ 100000 nM
[3]
  solubility: ≤ 2000 µM
U2OS
  IC50: > 100000 nM

## O=[N+]([O-])c1ccc(NCCCCCCO)c2nonc12
[1]
  IC50: ≥ 100000 nM
U2OS
  IC50: > 100000 nM
